Activity calls are given as the source filed them. Cut-off read from the data, not from the text of the source, for most assays here: actives have a measured IC50 and inactives only a lower limit.
How the values were obtained:
[1] = target: Scavenger receptor class B member 1 (Mus musculus, UniProt Q61009); experiment: inhibitors of SR-BI mediated HDL lipid uptake, dose response, ldlA[mSR-BI] cells, fluorescence, cherry pick (AID 493194); format: functional, cell-based;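 note: cellular uptake of fluorescent DiI-labeled HDL measured as cell fluorescence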
[2] = target: DNA dC->dU-editing enzyme APOBEC-3A (Homo sapiens, UniProt P31941); experiment: APOBEC3A DNA deaminase inhibitors, dose response, biochemical (AID 504722); format: functional
[3] = target: DNA dC->dU-editing enzyme APOBEC-3G (Homo sapiens, UniProt Q9HC16); experiment: Dose Response confirmation of small molecule APOBEC3G DNA Deaminase Inhibitors via a fluorescence-based single-stranded DNA deaminase assay. [Related pubchem assays (depositor defined):AID493012, AID493028]; format: functional
[4] = target: T1, Tyrosine-protein phosphatase non-receptor type 7 (Homo sapiens, UniProt P35236); format: functional
T1 sequence (P35236 whole entry): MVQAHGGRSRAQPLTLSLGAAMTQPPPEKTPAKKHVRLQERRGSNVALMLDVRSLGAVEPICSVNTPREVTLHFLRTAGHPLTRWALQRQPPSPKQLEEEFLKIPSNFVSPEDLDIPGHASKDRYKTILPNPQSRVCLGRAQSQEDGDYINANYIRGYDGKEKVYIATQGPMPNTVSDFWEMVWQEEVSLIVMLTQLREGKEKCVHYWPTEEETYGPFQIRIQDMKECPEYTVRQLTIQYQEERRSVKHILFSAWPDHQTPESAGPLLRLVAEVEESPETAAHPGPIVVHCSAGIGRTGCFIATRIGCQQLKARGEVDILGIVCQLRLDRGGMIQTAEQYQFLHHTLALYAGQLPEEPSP

[5] = target: Glyceraldehyde-3-phosphate dehydrogenase (Homo sapiens, UniProt P04406)
[6] = target: T2, Dual specificity protein phosphatase 6 (Rattus norvegicus, UniProt Q64346)
T2 sequence (Q64346 whole entry): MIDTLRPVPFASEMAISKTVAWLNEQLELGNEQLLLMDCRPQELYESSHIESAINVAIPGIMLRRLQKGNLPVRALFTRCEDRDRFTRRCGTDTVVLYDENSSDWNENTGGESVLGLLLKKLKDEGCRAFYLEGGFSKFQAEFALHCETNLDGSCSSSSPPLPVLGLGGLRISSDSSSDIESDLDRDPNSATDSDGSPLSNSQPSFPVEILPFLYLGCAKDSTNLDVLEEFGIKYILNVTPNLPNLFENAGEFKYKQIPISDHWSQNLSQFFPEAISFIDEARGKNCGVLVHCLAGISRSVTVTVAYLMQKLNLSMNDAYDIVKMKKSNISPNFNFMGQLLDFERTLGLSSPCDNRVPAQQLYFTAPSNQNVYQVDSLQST

[7] = target: T2, Dual specificity protein phosphatase 6; format: functional
Tumor necrosis factor = Tumor necrosis factor (Homo sapiens, UniProt P01375); experiment: TNFa-triggered NF-kB activation inhibitors, SAR follow-up, cell-based, revised (AID 2337); format: functional
[8] = target: T3, Nucleotide-binding oligomerization domain-containing protein 1 (Homo sapiens, UniProt Q9Y239); experiment: NOD1 signaling inhibitors, SAR follow-up, revised (AID 2333); format: functional
T3 sequence (Q9Y239 whole entry): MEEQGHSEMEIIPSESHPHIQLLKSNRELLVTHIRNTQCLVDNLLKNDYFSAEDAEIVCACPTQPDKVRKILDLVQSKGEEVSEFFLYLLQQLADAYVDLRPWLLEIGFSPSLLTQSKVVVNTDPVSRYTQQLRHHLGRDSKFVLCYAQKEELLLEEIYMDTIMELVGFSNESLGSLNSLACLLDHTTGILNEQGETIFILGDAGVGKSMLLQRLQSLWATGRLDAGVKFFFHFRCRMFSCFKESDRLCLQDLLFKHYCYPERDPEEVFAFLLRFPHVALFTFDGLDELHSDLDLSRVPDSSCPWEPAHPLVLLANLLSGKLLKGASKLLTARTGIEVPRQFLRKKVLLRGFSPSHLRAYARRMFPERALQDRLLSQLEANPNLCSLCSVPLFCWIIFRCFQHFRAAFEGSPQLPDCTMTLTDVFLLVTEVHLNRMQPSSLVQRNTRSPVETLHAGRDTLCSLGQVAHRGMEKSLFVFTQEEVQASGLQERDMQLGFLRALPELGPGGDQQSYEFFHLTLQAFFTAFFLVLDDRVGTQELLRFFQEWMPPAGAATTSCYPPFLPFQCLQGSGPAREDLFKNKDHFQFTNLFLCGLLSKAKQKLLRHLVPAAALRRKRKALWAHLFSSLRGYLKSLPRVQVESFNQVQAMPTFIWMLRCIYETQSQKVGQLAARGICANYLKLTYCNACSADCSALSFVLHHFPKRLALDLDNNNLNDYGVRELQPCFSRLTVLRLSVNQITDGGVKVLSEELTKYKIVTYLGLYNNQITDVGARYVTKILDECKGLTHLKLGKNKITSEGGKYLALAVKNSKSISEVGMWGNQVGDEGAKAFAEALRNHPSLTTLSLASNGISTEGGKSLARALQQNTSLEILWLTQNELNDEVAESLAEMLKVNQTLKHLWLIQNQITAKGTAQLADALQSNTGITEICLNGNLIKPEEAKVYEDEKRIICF

[9] = target: Nucleotide-binding oligomerization domain-containing protein 2 (Homo sapiens, UniProt Q9HC29); experiment: PubChem AID 2334; format: functional
HEK293 = experiment: cells; settings: Homo sapiens;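 note: cells exposed to compound for 14 hours overnight before viability readout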

Sequence of DNA dC->dU-editing enzyme APOBEC-3G (Q9HC16 whole entry): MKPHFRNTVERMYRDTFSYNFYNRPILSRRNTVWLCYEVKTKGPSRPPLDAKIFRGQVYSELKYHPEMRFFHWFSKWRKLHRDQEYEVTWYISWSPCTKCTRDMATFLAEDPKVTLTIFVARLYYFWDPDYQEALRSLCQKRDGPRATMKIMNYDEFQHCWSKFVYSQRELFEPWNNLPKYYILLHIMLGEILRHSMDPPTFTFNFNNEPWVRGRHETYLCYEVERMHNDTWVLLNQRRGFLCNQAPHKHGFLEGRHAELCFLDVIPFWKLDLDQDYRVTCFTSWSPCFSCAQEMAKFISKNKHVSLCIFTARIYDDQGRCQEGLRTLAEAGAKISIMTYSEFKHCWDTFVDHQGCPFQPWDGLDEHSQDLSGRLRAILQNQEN
Sequence of Glyceraldehyde-3-phosphate dehydrogenase (P04406 whole entry): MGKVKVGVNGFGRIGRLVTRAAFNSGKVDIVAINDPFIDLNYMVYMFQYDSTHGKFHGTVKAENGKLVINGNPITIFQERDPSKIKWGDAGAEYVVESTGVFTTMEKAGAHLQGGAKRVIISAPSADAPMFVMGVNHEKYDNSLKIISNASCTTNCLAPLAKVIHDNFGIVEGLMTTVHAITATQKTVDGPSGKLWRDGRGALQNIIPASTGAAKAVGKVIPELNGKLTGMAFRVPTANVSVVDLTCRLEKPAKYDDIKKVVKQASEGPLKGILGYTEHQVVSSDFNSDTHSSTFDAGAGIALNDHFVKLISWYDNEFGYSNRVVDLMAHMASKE
Sequence of DNA dC->dU-editing enzyme APOBEC-3A (P31941 whole entry): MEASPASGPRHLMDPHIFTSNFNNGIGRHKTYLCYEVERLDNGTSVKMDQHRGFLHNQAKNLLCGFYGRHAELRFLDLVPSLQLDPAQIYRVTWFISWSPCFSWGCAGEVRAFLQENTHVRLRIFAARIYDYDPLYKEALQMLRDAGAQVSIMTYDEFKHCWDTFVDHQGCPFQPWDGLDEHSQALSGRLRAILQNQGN
Sequence of Tumor necrosis factor (P01375 whole entry, the tested form may be a part): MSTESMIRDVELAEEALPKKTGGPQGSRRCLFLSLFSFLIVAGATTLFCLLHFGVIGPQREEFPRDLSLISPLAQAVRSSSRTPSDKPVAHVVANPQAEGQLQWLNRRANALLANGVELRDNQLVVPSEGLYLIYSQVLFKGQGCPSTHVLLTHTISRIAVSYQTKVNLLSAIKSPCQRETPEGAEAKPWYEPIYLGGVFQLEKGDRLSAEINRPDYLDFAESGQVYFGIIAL
Sequence of Nucleotide-binding oligomerization domain-containing protein 2 (Q9HC29 whole entry, the tested form may be a part): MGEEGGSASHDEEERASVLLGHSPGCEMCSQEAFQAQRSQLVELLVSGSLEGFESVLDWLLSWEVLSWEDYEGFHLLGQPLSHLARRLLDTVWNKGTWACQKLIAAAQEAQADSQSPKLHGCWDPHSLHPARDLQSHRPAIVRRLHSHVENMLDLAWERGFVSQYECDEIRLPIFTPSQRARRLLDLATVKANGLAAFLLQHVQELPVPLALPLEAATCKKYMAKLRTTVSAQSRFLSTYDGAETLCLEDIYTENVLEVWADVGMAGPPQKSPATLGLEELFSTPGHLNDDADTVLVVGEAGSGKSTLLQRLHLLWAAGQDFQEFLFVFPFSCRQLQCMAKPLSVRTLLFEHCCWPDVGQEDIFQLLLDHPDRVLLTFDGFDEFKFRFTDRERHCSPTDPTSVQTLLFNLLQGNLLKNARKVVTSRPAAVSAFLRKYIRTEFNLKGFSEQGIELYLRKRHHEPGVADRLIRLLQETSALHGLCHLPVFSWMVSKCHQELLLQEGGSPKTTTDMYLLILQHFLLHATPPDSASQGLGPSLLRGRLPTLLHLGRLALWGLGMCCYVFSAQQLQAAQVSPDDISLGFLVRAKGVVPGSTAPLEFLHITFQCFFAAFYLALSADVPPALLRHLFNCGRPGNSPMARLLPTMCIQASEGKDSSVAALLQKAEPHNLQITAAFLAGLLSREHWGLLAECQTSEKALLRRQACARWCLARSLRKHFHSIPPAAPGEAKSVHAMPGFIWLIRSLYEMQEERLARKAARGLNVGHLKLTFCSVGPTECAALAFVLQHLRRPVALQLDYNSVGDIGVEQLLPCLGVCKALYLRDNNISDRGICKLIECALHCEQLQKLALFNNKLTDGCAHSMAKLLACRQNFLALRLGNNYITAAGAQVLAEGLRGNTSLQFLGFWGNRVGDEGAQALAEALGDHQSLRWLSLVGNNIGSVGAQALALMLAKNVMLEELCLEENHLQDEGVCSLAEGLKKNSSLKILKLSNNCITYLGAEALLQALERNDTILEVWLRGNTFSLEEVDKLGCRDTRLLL
Sequence of Scavenger receptor class B member 1 (Q61009 whole entry): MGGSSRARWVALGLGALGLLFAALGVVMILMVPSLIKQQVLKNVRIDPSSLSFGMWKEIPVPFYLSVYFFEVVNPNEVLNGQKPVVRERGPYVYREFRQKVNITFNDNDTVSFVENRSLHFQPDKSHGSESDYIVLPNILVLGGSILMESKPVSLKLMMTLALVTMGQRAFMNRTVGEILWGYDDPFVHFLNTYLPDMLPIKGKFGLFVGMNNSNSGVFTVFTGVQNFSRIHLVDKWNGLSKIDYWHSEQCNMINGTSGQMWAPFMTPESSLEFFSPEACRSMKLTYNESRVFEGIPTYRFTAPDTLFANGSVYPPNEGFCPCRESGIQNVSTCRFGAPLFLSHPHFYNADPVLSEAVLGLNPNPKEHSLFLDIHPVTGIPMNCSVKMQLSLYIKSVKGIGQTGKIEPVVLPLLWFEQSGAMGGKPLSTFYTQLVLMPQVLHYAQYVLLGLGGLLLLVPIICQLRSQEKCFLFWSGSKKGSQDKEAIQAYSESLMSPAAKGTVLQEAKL

| IC50 [4] | IC50 [5] | IC50 [6] | IC50 [7] | SMILES | IC50 [2] | IC50 [3] | other results |
| --- | --- | --- | --- | --- | --- | --- | --- |
| > 100 µM (not active) | > 100 µM (not active) | > 100 µM (inactive) | > 100 µM (inactive) | CCCCCCn1c(=O)nc(NCc2ccccc2OC)[nH]c1=O | – | – | – |
| > 100 µM (not active) | > 100 µM (not active) | > 100 µM (inactive) | > 100 µM (inactive) | CCOC(=O)C1Nc2c(O)ccc(C)c2C2C=CCC12 (configuration not stated) | – | – | – |

The remaining lines, values behind:

| SMILES | IC50 [4] | IC50 [5] | IC50 [6] | IC50 [7] | IC50 [2] | IC50 [3] | other results |
| --- | --- | --- | --- | --- | --- | --- | --- |
| Cc1cc(-c2csc(N)n2)c(C)n1-c1ccc(Cl)c(Cl)c1 | – | – | – | – | – | – | AC50 [1]: 12.9 µM (active) |
| CC(/C=N/n1c(S)nnc1-c1cc(C)[nH]n1)=C\c1ccco1 | – | – | – | – | > 100 µM (inactive) | 2.47 µM (active) | – |
| CCOc1ccc(N)c(SSc2cc(OCC)ccc2N)c1 | – | – | – | – | > 100 µM (inactive) | 17.1 µM (active) | – |
| N#C/C(=C(/O)COC(=O)CSc1ccc2ccccc2c1)c1nc2ccccc2[nH]1 | – | – | – | – | – | – | IC50 (Tumor necrosis factor): > 20 µM (inactive); IC50 [8]: > 20 µM (inactive); IC50 [9]: > 20 µM (inactive); IC50 (HEK293): > 20 µM (inactive) |
